Measurements reported in patent US9718790B2, “Triazine derivative and pharmaceutical composition having an analgesic activity comprising the same” (SHIONOGI & CO., LTD., priority 2010, dated 2017).

How the values were obtained:
[1] = biological target: human P2X3 receptor (Homo sapiens (Human), UniProt P56373); experiment: Evaluation of human P2X3 receptor inhibitory activity (Fluo-3 calcium fluorescence, FDSS 3000, ATP stimulation); format: cell-based;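 also: stimulus was 50 nM ATP with fluorescence followed for 3 min, and the response per well was peak post-ATP fluorescence divided by the reading at measurement start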
[2] = test system: partial sciatic nerve ligation model in rats; experiment: Analgesic effect in a Seltzer model, Evaluation (1): mechanical allodynia, von Frey filaments; format: in vivo; settings: rat, oral single administration, at 3 hours, read-out: analgesic effect, percent reversal of mechanical allodynia
From the text: Rats were anaesthetized using isoflurane/O2 inhalation anaesthesia. After induction of anesthesia, the left thigh was shaved. An incision was made in the skin just below the hip bone. The muscle was bluntly dissected to expose the sciatic nerve. One third (⅓) to one half (½) of the sciatic nerve thickness was tightly ligated and the wound was closed. The right thigh is used as a sham-operated control. The right thigh undergoes an identical procedure with the left hind limb, however, the sciatic nerve is not manipulated or ligated.
Two weeks after nerve ligation, the effect on mechanical allodynia was assessed using a series of von Frey filaments. For habituation, the rats were placed into a plastic cage on a wire mesh bottom. The mechanical sensitivity (mechanical threshold) of the hind paws was estimated with a series of von Frey filaments (0.4-20 g). The measurement of mechanical sensitivity of the right and left hind paws was performed to obtain predose mechanical sensitivity. The rats showing thee threshold change from 0.6 to 2 g (in nerve ligated side) and 8 to 15 g (in sham operated side) were used in the experiments. On the day belone the experiment, the rats were evaluated with a series of von Frey filaments to familiarize them with the test procedure. The adopted animal was administrated with the test compounds. The test compounds were homogenized with mortar and pestle and suspended or diluted in 0.5% Methyl Cellulose to prepare 0.1-2.0 mg/mL/kg suspension and orally administered to rat using a syringe attached with a sonde. Post-dose mechanical sensitivities of the right and left hind paws were measured at approximately 1 to 5 hours after drug administration. Percent reversal of mechanical allodynia for each rat was calculated using the following formula. The analgesic effects of the compounds were compared.

[3] = human P2X3 receptor, Test Example 1
[4] = C6BU-1 cells stably expressing human P2X3 receptor
[5] = C6BU-1 cells stably expressing human P2X3 receptor, Fluo-3 fluorescence, FDSS 3000

Sequence of human P2X3 receptor (P56373 whole entry): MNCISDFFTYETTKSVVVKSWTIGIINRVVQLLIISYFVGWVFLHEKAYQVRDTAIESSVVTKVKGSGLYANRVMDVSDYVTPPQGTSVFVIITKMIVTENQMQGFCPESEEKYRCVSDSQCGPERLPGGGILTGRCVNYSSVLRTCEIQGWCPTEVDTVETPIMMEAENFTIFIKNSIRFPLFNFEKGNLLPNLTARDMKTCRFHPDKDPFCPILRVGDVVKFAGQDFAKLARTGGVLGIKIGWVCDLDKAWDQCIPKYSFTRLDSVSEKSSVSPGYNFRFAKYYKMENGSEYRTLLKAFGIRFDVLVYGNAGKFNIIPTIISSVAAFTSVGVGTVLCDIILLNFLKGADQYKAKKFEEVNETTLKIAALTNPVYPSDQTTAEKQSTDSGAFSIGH

| SMILES | IC50 [1, 3] [nM] | IC50 [1, 4] [nM] | IC50 [1, 5] [nM] | further results |
| --- | --- | --- | --- | --- |
| Cc1cc(/N=c2\[nH]c(=O)n([C@@H](C)[C@@H](C)C(=O)O)c(=O)n2Cc2ccc(Cl)cc2)ccc1OC(C)C [Compound I-0826] | 19 | – | – | inhibition in vivo at 3 mg/kg [2]: > 30% |
| CCn1c(=O)[nH]/c(=N\c2ccc(Oc3ncc(C(=O)O)s3)cc2)n(Cc2ccc(Cl)cc2)c1=O [Compound I-2153] | – | 6 | – | inhibition in vivo at 3 mg/kg [2]: > 30% |
| Cc1cc(Oc2ccc(/N=c3\[nH]c(=O)n(C[C@H](O)CO)c(=O)n3Cc3ccc(Cl)cc3)cc2)no1 [Compound I-1757] | – | – | 12 | inhibition in vivo at 3 mg/kg [2]: > 30% |
| Cc1ccc(Cn2c(=O)n(C[C@H](C)C(=O)O)c(=O)[nH]/c2=N\c2ccc(CC(C)C)c(Cl)c2)cc1 [Compound I-1373] | – | 4 | – | inhibition in vivo at 3 mg/kg [2]: > 30% |
| CC(CO)(CO)Cn1c(=O)[nH]/c(=N\c2ccc(Oc3ccon3)cc2)n(Cc2ccc(Cl)cc2)c1=O [Compound I-2369] | 3 | – | – | inhibition in vivo at 3 mg/kg [2]: > 30% |
| CCn1c(=O)[nH]/c(=N\c2ccc(Oc3ccc(C(N)=O)nn3)cc2)n(Cc2ccc(Cl)cc2)c1=O [Compound I-2283] | < 4 | – | – | inhibition in vivo at 3 mg/kg [2]: > 30% |
| O=c1[nH]/c(=N\c2ccc(OCC3CC3)cc2)n(Cc2ccc(Cl)cc2)c(=O)n1CC(CO)CO [Compound I-1849] | – | – | 7 | inhibition in vivo at 3 mg/kg [2]: > 30% |
| Cn1c(=O)[nH]/c(=N\c2ccc(Oc3cccc(C(=O)O)n3)cc2)n(Cc2ccc(Cl)cc2)c1=O [Compound I-2272] | 8 | – | – | inhibition in vivo at 3 mg/kg [2]: > 30% |
| O=c1[nH]/c(=N\c2ccc(Oc3ccon3)cc2)n(Cc2ccc(Cl)cc2)c(=O)n1C[C@H](O)CO [Compound I-2293] | 6 | – | – | inhibition in vivo at 3 mg/kg [2]: > 30% |
| Cc1ccc(Cn2c(=O)n([C@@H](C)[C@@H](C)C(=O)O)c(=O)[nH]/c2=N\c2ccc(OC(C)C)c(Cl)c2)cc1 [Compound I-0931] | – | – | 12 | inhibition in vivo at 3 mg/kg [2]: > 30% |
| Cn1c(=O)[nH]/c(=N\c2ccc(Oc3cnc(C#N)cn3)cc2)n(Cc2ccc(Cl)cc2)c1=O [Compound I-2428] | 5 | – | – | inhibition in vivo at 3 mg/kg [2]: > 30% |
| O=c1[nH]/c(=N\c2ccc(Oc3ccon3)cc2)n(Cc2ccc(Cl)cc2)c(=O)n1CCO [Compound I-2292] | 12 | – | – | inhibition in vivo at 3 mg/kg [2]: > 30% |
| Cn1ccc(Oc2ccc(/N=c3\[nH]c(=O)n(C[C@H](O)CO)c(=O)n3Cc3ccc(Cl)cc3)cc2)n1 [Compound I-2412] | 84 | – | – | – |
| CNC(=O)CCn1c(=O)[nH]/c(=N\c2ccc3nc(C)sc3c2)n(Cc2ccc(C)cc2)c1=O [Compound I-1570] | – | – | 8 | – |
| C[C@@H](C(=O)O)[C@H](C)n1c(=O)[nH]/c(=N\c2ccc3oc4c(c3c2)CCCCC4)n(Cc2ccc(Cl)cc2)c1=O [Compound I-1747] | – | – | 201 | – |
| C[C@@H](C(=O)O)[C@H](C)n1c(=O)[nH]/c(=N\c2ccc(OC3CCC3)cc2)n(Cc2ccc(Cl)cc2)c1=O [Compound I-1391] | – | 16 | – | – |
| Cc1cc(/N=c2\[nH]c(=O)n(CCC(=O)O)c(=O)n2Cc2ccc(Cl)cc2)ccc1CC(C)C [Compound I-1255] | – | 48 | – | – |
| Cc1ccc(Cn2c(=O)n(C[C@H](C)CO)c(=O)[nH]/c2=N\c2ccc(CC(C)C)c(Cl)c2)cc1 [Compound I-1579] | – | – | 7 | – |
| Cc1nnc(Oc2ccc(/N=c3\[nH]c(=O)n(C)c(=O)n3Cc3ccc(Cl)cc3)cc2)o1 [Compound I-2355] | 71 | – | – | – |
| COC(=O)[C@@H](C)Cn1c(=O)[nH]/c(=N\c2ccc(C=C3CCCC3)cc2)n(Cc2ccc(C)cc2)c1=O [Compound I-1094] | – | – | 103 | – |
| O=C(Cn1c(=O)[nH]/c(=N\c2ccc(Oc3ccc(O)nc3)cc2)n(Cc2ccc(Cl)cc2)c1=O)NCCO [Compound I-1902] | – | – | 8 | – |
| COc1ccc(CN2C(=O)CC[C@H]2Cn2c(=O)[nH]/c(=N\c3ccc(OC(C)C)c(F)c3)n(Cc3ccc(Cl)cc3)c2=O)cc1 [Compound I-0684] | – | 30 | – | – |
| CC[C@@H](C)n1c(=O)[nH]/c(=N\c2ccc(Oc3cncc(C(=O)O)c3)cc2)n(Cc2ccc(Cl)cc2)c1=O [Compound I-2483] | 8 | – | – | – |
| CCn1c(=O)[nH]/c(=N\c2ccc(Oc3cc(OC)ncn3)cc2)n(Cc2ccc(Cl)cc2)c1=O [Compound I-1859] | – | – | 5 | – |
| COC(=O)[C@@H](C)[C@@H](C)n1c(=O)[nH]/c(=N\c2ccc(OC(C)C)c(F)c2)n(Cc2ccc(C)cc2)c1=O [Compound I-1311] | – | 23 | – | – |
| COC(=O)[C@@H](C)[C@@H](C)n1c(=O)[nH]/c(=N\c2ccc(Oc3ccc(C)nc3)cc2)n(Cc2ccc(Cl)cc2)c1=O [Compound I-1376] | – | 15 | – | – |
| N#Cc1ccc(Oc2ccc(/N=c3\[nH]c(=O)n(C[C@@H](O)CO)c(=O)n3Cc3ccc(Cl)cc3)cc2)cc1 [Compound I-2560] | 5 | – | – | – |

| SMILES | IC50 [1, 3] [nM] | IC50 [1, 4] [nM] | IC50 [1, 5] [nM] | further results |
| --- | --- | --- | --- | --- |
| Cc1ccc(Cn2c(=O)n(C[C@H](C)C(=O)O)c(=O)[nH]/c2=N\c2ccc(N3CCCCCC3)cc2)cc1 [Compound I-1237] | – | 183 | – | – |
| CCn1c(=O)[nH]/c(=N\c2ccc(Oc3ccc(C(N)=O)cc3)nc2)n(Cc2ccc(Cl)cc2)c1=O [Compound I-2620] | 110 | – | – | – |
| CCOc1ccc(/N=c2\[nH]c(=O)n(C[C@@H](C)C(=O)O)c(=O)n2CC2CCCCC2)cc1Cl [Compound I-0648] | – | 336 | – | – |
| CCOC(=O)CCn1c(=O)[nH]/c(=N\c2ccc(O[C@H](C)C(F)(F)F)cc2)n(Cc2ccc(C)cc2)c1=O [Compound I-1021] | – | – | 7 | – |
| Cc1cc(/N=c2\[nH]c(=O)n(Cc3cccnc3OCCOC3CCCCO3)c(=O)n2Cc2ccc(Cl)cc2)ccc1OC(C)C (stereo not drawn) [Compound I-0714] | – | 30 | – | – |
| Cc1cc(/N=c2\[nH]c(=O)n(CCC(=O)O)c(=O)n2Cc2ccc(Cl)cc2)ccc1OC1CCC1 [Compound I-1407] | – | 36 | – | – |
| CC(C)Oc1ccc(/N=c2\[nH]c(=O)[nH]c(=O)n2Cc2ccc(Cl)cc2)cc1 [Compound I-1981] | – | 354 | – | – |
| CCOC(=O)C1(Cn2c(=O)[nH]/c(=N\c3ccc4nc(C)sc4c3)n(Cc3ccc(C)cc3)c2=O)CC1 [Compound I-1545] | 3 | – | – | – |
| CCn1c2ccccc2c2cc(/N=c3\[nH]c(=O)n([C@@H](C)[C@@H](C)C(=O)O)c(=O)n3Cc3ccc(Cl)cc3)ccc21 [Compound I-1815] | – | – | 367 | – |
| Cc1ccc(Cn2c(=O)n(C[C@H](C)C(=O)O)c(=O)[nH]/c2=N\c2ccc(OC(F)F)cc2)cc1 [Compound I-1161] | – | – | 148 | – |
| CCn1c(=O)[nH]/c(=N\c2ccc(Oc3cncc(C(=O)O)c3)cc2)n(C[C@H]2CC[C@H](C)CC2)c1=O [Compound I-2352] | 6 | – | – | – |
| COC(=O)CCCn1c(=O)[nH]/c(=N\c2ccc3nc(C)sc3c2)n(Cc2ccc(Cl)cc2)c1=O [Compound I-2142] | – | 6 | – | – |
| CCc1cc(/N=c2\[nH]c(=O)n(CCC(=O)O)c(=O)n2Cc2ccc(C)cc2)ccc1OC(C)C [Compound I-1199] | – | 36 | – | – |
| CCn1c(=O)[nH]/c(=N\c2ccc(Oc3cccc(C(=O)O)n3)cc2)n(Cc2ccc(C)cc2)c1=O [Compound I-2181] | – | 4 | – | – |
| CCn1c(=O)[nH]/c(=N\c2ccc(Oc3ccnc(C#N)c3)cc2)n(Cc2ccc(Cl)cn2)c1=O [Compound I-2372] | 32 | – | – | – |
| Cc1cnc(Oc2ccc(/N=c3\[nH]c(=O)n(CC(O)CO)c(=O)n3Cc3ccc(Cl)cc3)cc2)s1 (stereo not drawn) [Compound I-2456] | 8 | – | – | – |
| Cc1ccc(Cn2c(=O)n([C@H](C)CC(=O)O)c(=O)[nH]/c2=N\c2ccc(OC(C)C)c(Cl)c2)cc1 [Compound I-0878] | 22 | – | – | – |
| CCn1c(=O)[nH]/c(=N\c2ccc(Oc3ccccc3C(=O)O)cc2)n(Cc2ccc(Cl)cc2)c1=O [Compound I-1992] | – | 240 | – | – |
| CCOC(=O)CCn1c(=O)[nH]/c(=N\c2ccc(OC3CCC3)c(Cl)c2)n(Cc2ccc(Cl)cc2)c1=O [Compound I-1330] | – | 9 | – | – |
| COC(=O)Cn1c(=O)[nH]/c(=N\c2ccc3nc(C)sc3c2)n(Cc2ccc(Cl)cc2)c1=O [Compound I-1602] | – | – | 5 | – |
| CCn1c(=O)[nH]/c(=N\c2ccc(Oc3cncc(C(=O)O)c3)cc2)n(Cc2ccc(Cl)cc2)c1=O [Compound I-1885] | – | – | 7 | – |
| CCn1c(=O)[nH]/c(=N\c2ccc3nc(OCC(=O)OC)sc3c2)n(Cc2ccc(Cl)cc2)c1=O [Compound I-2324] | 115 | – | – | – |
| CCc1oc2ccc(/N=c3\[nH]c(=O)n(CC(C)(C)C(=O)O)c(=O)n3Cc3ccc(C)cc3)cc2c1C [Compound I-1582] | – | – | 7 | – |
| COc1ccc(Oc2ccc(/N=c3\[nH]c(=O)n(CC(=O)NCCO)c(=O)n3Cc3ccc(Cl)cc3)cc2)cn1 [Compound I-1858] | – | – | 5 | – |
| C[C@@H](Cn1c(=O)[nH]/c(=N\c2ccc3c(c2)CCC3)n(Cc2ccc(Cl)cc2)c1=O)C(=O)O [Compound I-0772] | – | 477 | – | – |
| COC(=O)[C@@H](C)Cn1c(=O)[nH]/c(=N\c2ccc(OCC3CC3)cc2)n(Cc2ccc(C)cc2)c1=O [Compound I-0834] | 18 | – | – | – |
| COc1ccc(Oc2ccc(/N=c3\[nH]c(=O)n(CCCO)c(=O)n3Cc3ccc(Cl)cc3)cc2)cn1 [Compound I-1733] | – | – | 3 | – |
